Data on nine compounds can be found in patent publication US20230090708A1, “METHODS AND COMPOSITIONS FOR THE TREATMENT OF HEMANGIOMA” (MASSEY VENTURES LIMITED, priority 2020, published 2023).

In brackets after ≈: the same amount, converted by molar mass. Like-named read-outs stand apart in the source and are kept apart here.

For one data set, the target named is T1, rabbit lung ACE (Oryctolagus cuniculus, UniProt P12822).
T1 construct: rabbit lung ACE; from tissue; host or cells: rabbit lung
T1 sequence (P12822 34-1310): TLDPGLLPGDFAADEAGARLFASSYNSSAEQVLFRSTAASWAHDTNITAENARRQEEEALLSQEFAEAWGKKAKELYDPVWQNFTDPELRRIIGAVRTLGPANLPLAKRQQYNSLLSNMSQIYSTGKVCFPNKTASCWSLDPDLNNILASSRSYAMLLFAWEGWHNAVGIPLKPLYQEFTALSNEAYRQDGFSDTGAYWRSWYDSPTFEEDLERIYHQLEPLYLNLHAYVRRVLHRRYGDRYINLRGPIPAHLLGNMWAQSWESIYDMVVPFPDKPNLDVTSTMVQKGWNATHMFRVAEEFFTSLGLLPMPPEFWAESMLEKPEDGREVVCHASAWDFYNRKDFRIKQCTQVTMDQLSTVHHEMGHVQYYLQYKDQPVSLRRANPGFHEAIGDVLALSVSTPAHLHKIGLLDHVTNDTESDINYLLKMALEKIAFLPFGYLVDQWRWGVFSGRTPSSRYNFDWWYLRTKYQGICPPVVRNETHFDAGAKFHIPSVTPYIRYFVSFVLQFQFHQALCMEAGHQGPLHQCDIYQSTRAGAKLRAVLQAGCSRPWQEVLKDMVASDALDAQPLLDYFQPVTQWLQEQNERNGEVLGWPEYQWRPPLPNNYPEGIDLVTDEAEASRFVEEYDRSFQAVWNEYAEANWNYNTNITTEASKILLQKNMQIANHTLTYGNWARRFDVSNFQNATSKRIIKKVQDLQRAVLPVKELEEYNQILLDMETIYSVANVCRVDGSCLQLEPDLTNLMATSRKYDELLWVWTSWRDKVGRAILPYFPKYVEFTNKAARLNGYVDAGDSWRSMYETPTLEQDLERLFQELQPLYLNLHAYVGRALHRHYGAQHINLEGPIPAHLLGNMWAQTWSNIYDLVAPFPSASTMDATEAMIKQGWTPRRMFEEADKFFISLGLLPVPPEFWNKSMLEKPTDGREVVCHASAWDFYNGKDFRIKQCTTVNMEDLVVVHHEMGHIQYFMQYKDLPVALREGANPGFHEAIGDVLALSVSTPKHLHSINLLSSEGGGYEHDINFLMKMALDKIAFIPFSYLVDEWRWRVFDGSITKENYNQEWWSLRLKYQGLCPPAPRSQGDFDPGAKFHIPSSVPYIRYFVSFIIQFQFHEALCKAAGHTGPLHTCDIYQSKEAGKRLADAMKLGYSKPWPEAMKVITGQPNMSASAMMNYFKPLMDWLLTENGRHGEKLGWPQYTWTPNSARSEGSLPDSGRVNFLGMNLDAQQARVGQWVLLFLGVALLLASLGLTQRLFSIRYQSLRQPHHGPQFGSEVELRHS
Conditions: vs rabbit lung ACE, cited from earlier work.

For data set [1] the following is noted: cited from earlier work.
For data set [2] the following is noted: cited from earlier work. The source holds these as a separate data set.
The conditions of data set [3]: cited from earlier work; for Half life: short or long acting: in words; for Half life: in vivo.
Data set [4] concerns proliferating hemangioma cells. The data set is described as follows: Example 5: R- and S-beta blockers alone and with cilazapril, MTT. In kind it is cell-based, human. Conditions: for individual isomers compared with the racemic mixture: alone; for attenuating hemangioma cell proliferation, propranolol vs timolol enantiomers: particularly at 1-5 μM. The protocol: An in vitro cell culture model of infantile hemangioma was developed to assess the impact of renin-angiotensin system inhibitors on cellular proliferation. A primary cell line of proliferating infantile hemangioma cells, including haemangioma stem cells, was derived from a tissue biopsy obtained from patients during the proliferating phase of the disease. The primary cell lines are cultured in 25 cm^2 flasks using standard culture media and conditions. The cultured cells are used to seed 96-well plates with a seed cell concentration of 2500 or 5000 cells per well, with additional culture media (200 μL). All studies are performed in triplicate. The plates are incubated overnight to allow cell adherence to the wells. The wells are photographed to confirm cell adherence and confluency. The appropriate drug(s) to be examined are subsequently added to the wells. After 24 hours, one set of plates (experimental and blank) is stopped. The media is aspirated from each well and stored frozen for possible future analyses. Media is added to the wells and an MTT determination is undertaken according to standard protocols. This is repeated at 48 and 72 hours. From the triplicate incubations of each drug concentration at each time, as well as for all controls, the mean±standard deviation is calculated. The net survival (optical density value) is calculated by subtracting the appropriate blank mean value from each cell culture. From the MTT data, the percentage of survival of cells in the presence of each concentration of drug after each time of culturing is determined. The experimental protocol was performed as per Example 1. Briefly, cells were seeded in 96-well plates at concentrations of 2500 cells/well in triplicate for each drug and drug combination. Drug(s) were added to each well 24 hours after seeding and re-dosed every 24 hours. Cell viability was assessed by MTT assay after 24, 48, and 72 hours. All plates were performed in triplicate. […] Timolol and propranolol were used as model beta blockers and cilazapril as a model ACE inhibitor.

Data set [5] deals with proliferating hemangioma cell lines (n=9). The data set is described as follows: Example 6: single agents and combinations on nine primary cell lines, MTT, CompuSyn combination index. In kind it is cell-based, human. Conditions: 1 to 10 μM; 72 hours; n=9. The protocol: (§1) An in vitro cell culture model of infantile hemangioma was developed to assess the impact of renin-angiotensin system inhibitors on cellular proliferation. A primary cell line of proliferating infantile hemangioma cells, including haemangioma stem cells, was derived from a tissue biopsy obtained from patients during the proliferating phase of the disease. The primary cell lines are cultured in 25 cm^2 flasks using standard culture media and conditions. The cultured cells are used to seed 96-well plates with a seed cell concentration of 2500 or 5000 cells per well, with additional culture media (200 μL). All studies are performed in triplicate.
The plates are incubated overnight to allow cell adherence to the wells. The wells are photographed to confirm cell adherence and confluency. The appropriate drug(s) to be examined are subsequently added to the wells. After 24 hours, one set of plates (experimental and blank) is stopped. The media is aspirated from each well and stored frozen for possible future analyses. Media is added to the wells and an MTT determination is undertaken according to standard protocols. This is repeated at 48 and 72 hours.
(§2) From the triplicate incubations of each drug concentration at each time, as well as for all controls, the mean±standard deviation is calculated. The net survival (optical density value) is calculated by subtracting the appropriate blank mean value from each cell culture. From the MTT data, the percentage of survival of cells in the presence of each concentration of drug after each time of culturing is determined.
A study was undertaken using combinations of ACE inhibitors, beta blockers and angiotensin II type 2 receptor blockers to inhibit proliferating hemangioma cells. […] Patient histories pertaining to each cell line is described in Table 5.
The experimental protocol was performed as per Example 1. Briefly, cells were seeded in 96-well plates at concentrations of 2500 cells/well in triplicate for each drug and drug combination. Drug(s) were added to each well 24 hours after seeding and re-dosed every 24 hours. Cell viability was assessed by MTT assay after 24, 48, and 72 hours. All plates were performed in triplicate. Drugs were assessed alone and in combination, as described in Table 6. Propranolol was used as a model beta blocker, cilazapril as a model ACE inhibitor, and SMM02 (L-159686) as a model AT2Ri. Synergy was measured using the CompuSyn open-source software protocol for quantifying synergism and antagonism that uses the median-effect equation and mass-action laws to generate a combination index (www.compusyn.com). Synergism, additive effects and antagonism are defined as a CI<1, CI=1, and CI>1, respectively.

The test system of data set [6] is proliferating hemangioma cells. The data set is described as follows: Experiment 7: different ACEi and beta blockers on one primary cell line, MTT. As to conditions: for Results Summary: 72 hours, one cell line; for inhibition of proliferating hemangioma cells: 1 μM and 10 μM. In kind it is cell-based, human. The protocol:
as §1
The plates are incubated overnight to allow cell adherence to the wells. The wells are photographed to confirm cell adherence and confluency. The appropriate drug(s) to be examined are subsequently added to the wells. […] The media is aspirated from each well and stored frozen for possible future analyses. Media is added to the wells and an MTT determination is undertaken according to standard protocols.
as §2
Briefly, cells were seeded in 96-well plates at concentrations of 2500 cells/well in triplicate for each drug and drug combination. […] All plates were performed in triplicate. Beta blockers used in the study were (±)-propranolol, R-propranolol, S-propranolol, timolol, and betaxalol.

The next data set addresses T2, brush border ACE (Homo sapiens, UniProt P12821).
T2 construct: brush border ACE; from tissue
As to conditions: cited from earlier work.

Data set [7] relates to flat or minimally raised IH lesions. As to conditions: cited from earlier work.
For the next data set, the system named is superficial IH. Conditions: cited from earlier work.
The conditions of data set [8]: cited from earlier work. The source holds these as a separate data set.
A short description of data set [9]: Franz-diffusion cell permeation through skin-model membranes. Conditions: 120 hours.
Source text: Firstly, a custom-built Franz-diffusion cell (FIG. 34 A) was constructed in-house, consisting of a donor and receiver chamber, and fitted with a water-jacket to enable the temperature to be controlled to mimic physiological conditions. […] This model system was used as a screening tool to increase the success of subsequent permeation studies performed on excised animal skin.
The system was validated by investigating the permeation of a water-soluble fluorescent dye, carboxyfluorescein, which has poor skin penetration properties. […] As a comparison, carboxyfluorescein was encapsulated into deformable liposomes with a phospholipid membrane composition of soy phosphatidylcholine (Phospholipon® 90G) and polysorbate 80 in an 80:20 mol % ratio. […]
The carboxyfluorescein emulgel (2 mL) was placed in the receiver chamber of the Franz-diffusion cell fitted with a Strat-M® membrane, and permeation of fluorescein across the membrane was monitored over time and quantified by fluoresce spectroscopy. […]
The permeation of propranolol through skin-model membranes in vitro was assessed. A 2-mL volume of the appropriate vehicle (cream vs. emulsion gel) was placed in the donor chamber of the Franz-diffusion cell, and the concentration of propranolol in the receiver chamber was determined by UV-Vis spectroscopy at frequent time intervals over 60 hours.

T2 sequence (P12821 30-1306): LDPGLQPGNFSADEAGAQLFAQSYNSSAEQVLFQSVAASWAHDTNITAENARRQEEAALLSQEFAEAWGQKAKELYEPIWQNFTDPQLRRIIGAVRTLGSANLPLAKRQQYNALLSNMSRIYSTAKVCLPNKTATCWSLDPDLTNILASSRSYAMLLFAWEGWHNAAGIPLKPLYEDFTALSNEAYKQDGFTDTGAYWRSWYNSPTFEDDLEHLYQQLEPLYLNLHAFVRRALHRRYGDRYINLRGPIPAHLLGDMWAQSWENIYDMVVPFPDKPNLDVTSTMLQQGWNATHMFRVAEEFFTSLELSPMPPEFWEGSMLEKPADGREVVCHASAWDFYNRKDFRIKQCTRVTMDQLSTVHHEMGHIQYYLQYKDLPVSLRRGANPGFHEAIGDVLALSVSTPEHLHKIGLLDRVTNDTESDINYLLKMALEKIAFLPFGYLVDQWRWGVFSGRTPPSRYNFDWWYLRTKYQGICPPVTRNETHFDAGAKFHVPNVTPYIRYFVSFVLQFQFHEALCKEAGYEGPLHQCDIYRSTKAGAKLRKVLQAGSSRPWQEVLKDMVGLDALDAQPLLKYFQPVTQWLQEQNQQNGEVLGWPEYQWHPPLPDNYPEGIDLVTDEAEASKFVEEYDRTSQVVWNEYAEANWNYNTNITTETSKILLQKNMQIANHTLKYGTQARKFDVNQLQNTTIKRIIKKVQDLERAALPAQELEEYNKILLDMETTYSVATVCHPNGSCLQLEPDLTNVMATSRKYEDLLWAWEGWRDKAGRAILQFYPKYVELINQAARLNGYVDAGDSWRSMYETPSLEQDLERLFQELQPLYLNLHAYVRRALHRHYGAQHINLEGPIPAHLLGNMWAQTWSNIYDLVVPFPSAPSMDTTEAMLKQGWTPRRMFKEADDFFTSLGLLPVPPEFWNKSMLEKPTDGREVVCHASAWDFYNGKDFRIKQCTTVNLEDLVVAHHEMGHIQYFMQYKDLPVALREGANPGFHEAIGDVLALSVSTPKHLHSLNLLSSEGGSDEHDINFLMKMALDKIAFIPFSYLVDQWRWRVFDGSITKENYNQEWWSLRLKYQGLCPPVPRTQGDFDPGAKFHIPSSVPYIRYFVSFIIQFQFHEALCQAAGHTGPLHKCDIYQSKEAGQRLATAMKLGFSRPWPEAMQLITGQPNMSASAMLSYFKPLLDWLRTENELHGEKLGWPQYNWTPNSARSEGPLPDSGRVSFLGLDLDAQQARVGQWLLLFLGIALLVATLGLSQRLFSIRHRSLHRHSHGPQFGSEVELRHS

In the case of `CCOC(=O)[C@H](CCc1ccccc1)N[C@H]1CCc2ccccc2N(CC(=O)O)C1=O` [Benazepril], the IC50 (commonly the point on the concentration scale where inhibition reaches its midpoint) on rabbit lung ACE is 425 nM. The figures for the pKa in data set [1] and in data set [1] (second value) were 3.5 and 5.4, respectively. In addition, in data set [2] (pH 7), the Solubility – broadly, the concentration that dissolves in the medium under given conditions – is given as 1.76 mg/L (pH 7). Further, in [3], the “Half life: short or long acting” value is reported as “Long acting”.

As for `CC(C)NC[C@@H](O)COc1cccc2ccccc12` [R(+) Propranolol, R-propranolol], in [4], the “individual isomers compared with the racemic mixture” value is “as effective alone as the racemic mixture”; the “attenuating hemangioma cell proliferation, propranolol vs timolol enantiomers” value was “superior to R- and S-timolol”. The “dose-response across all cell lines” value in data set [5] is given as “typical dose-response”. Also, in [6], the “Estimated Optimal Dosage Range” value is 1 to 10 µM and the “Results Summary” value is listed as “Responder”. In addition, in data set [6] (1 μM), the “Inhibition vs. Cells + Adjuvant at 72 Hours” value was found to be 1 μM - No - 1.59%. The “Inhibition vs. Cells + Adjuvant at 72 Hours” value in data set [6] (10 μM) was 10 μM - Response - 50.35%.

`CCOC(=O)[C@H](CCc1ccccc1)N[C@@H](C)C(=O)N1[C@H](C(=O)O)C[C@@H]2CCC[C@@H]21` [Ramipril]: in data set [6], the “inhibition of proliferating hemangioma cells” value was “good and similar level of inhibition”; the “Results Summary” value is reported as “Responder”. Further, in data set [6] (Homo sapiens, 72 h, 1 μM, read-out: Inhibition vs. Cells + Adjuvant at 72 Hours), the inhibition (usually how much of the control response was suppressed) at 1 µM is less than 0%. Further, the inhibition at 10 µM in data set [6] (Homo sapiens, 72 h, 10 μM, read-out: Inhibition vs. Cells + Adjuvant at 72 Hours) is 68.1%. The “Complete ACE inhibition lasting” value on brush border ACE (after single 10 μM dose) is “inhibition lasting 15 days”. Also, at brush border ACE (vs brush border ACE), the IC50 is 5 nM. Moreover, the pKa (commonly the negative logarithm of the acid dissociation constant) in data set [1] is 3.75. Further, the pKa in data set [1] (second value) is 5.2. In addition, in data set [2], the Solubility is reported as 3.5 mg/L (≈ 8.4 µM). Further, in data set [3], the Half life is 2 to 4 h (Ramipril) and the “Half life: short or long acting” value was “Long acting”.

In the case of `CC(C)NCC(O)COc1cccc2ccccc12` (stereo not drawn) [S(−) Propranolol, S-propranolol], in [4], the “individual isomers compared with the racemic mixture” value is “as effective alone as the racemic mixture”; the “attenuating hemangioma cell proliferation, propranolol vs timolol enantiomers” value is “superior to R- and S-timolol”. Also, in data set [5], the “dose-response across all cell lines” value is recorded as “typical dose-response”. Also, in data set [6], the “Estimated Optimal Dosage Range” value was 1 to 10 µM and the “Results Summary” value was “Responder”. Moreover, in data set [6] (1 μM), the “Inhibition vs. Cells + Adjuvant at 72 Hours” value worked out at 1 μM - No - 2.07%. Besides, the “Inhibition vs. Cells + Adjuvant at 72 Hours” value in data set [6] (10 μM) worked out at 10 μM - Response - 45.68%.

For the compound `O=C(O)[C@H](CCc1ccccc1)N[C@H]1CCCN2CCC[C@@H](C(=O)O)N2C1=O` [cilazaprilat], the half-inhibitory concentration (IC50) on rabbit lung ACE was 1.93 nM. Moreover, the Half life in data set [3] is 9 h (cilazaprilat).

As for `CCC(=O)O[C@]1(C(=O)CCl)[C@@H](C)C[C@H]2[C@@H]3CCC4=CC(=O)C=C[C@]4(C)[C@@]3(F)[C@@H](O)C[C@@]21C` [clobetasol propionate], in data set [7] (topical 0.05%, 4 to 21 weeks), the good response is given as 35%, the no response is on record as 27% and the partial response is 38%. In addition, in data set [7] (topical ultrapotent corticosteroid), the adverse effects entry is “localised atrophy, hypopigmentation, hypertrichosis and infection”.

As for `CC(C)Cn1cnc2c(N)nc3ccccc3c21` [imiquimod, Imiquimod], in the data set on superficial IH (5% cream), the “time within which all cases are improved” value was no more than 4 months. Moreover, the side effects entry in the data set with superficial IH (topical) was “severe local inflammatory reactions leading to disfiguring scars”.

Turning to Lisinopril, in data set [6], the “Estimated Optimal Dosage Range” value is 1 to 10 µM, the “inhibition of proliferating hemangioma cells” value is listed as “no effect” and the “Results Summary” value is given as “Non-”. Moreover, the “Inhibition vs. Cells + Adjuvant at 72 Hours” value in data set [6] (1 μM) came out at 1 μM - <0%. The “Inhibition vs. Cells + Adjuvant at 72 Hours” value in data set [6] (10 μM) worked out at 10 μM -1.67%. For the same compound, on rabbit lung ACE (unit inferred), the IC50 was 3.3 nM. Besides, the lipophilicity (Log P) (in general, a log measure of how a compound divides between an organic and an aqueous phase) in data set [8] (Table 1) is −1.01. Besides, in [8], the log partition coefficient (log P) – broadly, a log measure of how a compound divides between an organic and an aqueous phase – is listed as −1.01. Further, the pKa in data set [1] is given as 3.2. Moreover, in data set [1] (second value), the pKa is on record as 10.2. Also, the Solubility in data set [2] was 97000 mg/L. In data set [3], the Half life is 12.6 h and the “Half life: short or long acting” value was “Long acting”.

Regarding carboxyfluorescein, the log partition coefficient (log P) in data set [8] is listed as 2.9. Further, the “permeation of carboxyfluorescein through the skin-model membrane” value in data set [9] is recorded as “No permeation”.
